Legend:
[1] = tested on: two-component signal transduction; experiment: Taz-1 assay, two-component signal transduction; format: cell-based, E. coli; conditions: beta-galactosidase readout
Protocol: The Taz-assay carried out according to the method of Jin and Inouye (1993) with the following alterations. E. coli RU1012 (pYT0301) were grown overnight in M9 medium at 37° C. supplemented with 100 ug/ml ampicillin and 50 ug/ml kanamycin. This overnight culture was then used to inoculate 50 ml M9 medium in side-arm flasks which were then incubated at 37° C. and shaken at 180 rpm. The OD610 of the growing cultures was monitored regularly and when the OD610=0.2 the cultures were placed on ice. Aspartate was added to side-arm flasks to give a final concentration of 3 mM (aspartate stock solution made up in M9 salts).
The test compound or mixtures of compounds were dissolved in ethanol and added to cultures to give the required final concentrations. Negative controls were prepared with equal volumes of ethanol. Cultures were then placed in a 37° C. incubator and shaken for 4 hours (OD610 approximately 0.7) before being removed and put on ice. Samples were then removed for […]eta-galactosidase assays carried out according to the method of Miller (1972).

[2] = tested on: AI-2 activity; experiment: V. harveyi bioassay for the detection of AI-2 activity; format: cell-based; conditions: V. harveyi BB170 luminescence
Protocol: The V. harveyi bioassay was performed as described previously (Surette and Bassler, 1998). The V. harveyi reporter strain BB170 was grown for 16 hours at 30° C. with shaking in AB medium. Cells were diluted 1:5,000 into 30° C. prewarmed AB medium and 90 ul of the diluted suspension was added to wells containing supernatant. Furanones were added to the wells to achieve the desired final concentrations and the final volume in each well was adjusted with sterile medium to 100 ul. Ten ul of V. harveyi BB152 (AI-1−, AI-2+) supernatant was used as a positive control and 10 ul of E. coli DH5α supernatant or sterile media was used as a negative control. […] The microtiter plates were incubated at 30° C. with shaking at 175 rpm. Hourly determinations of the total luminescence were quantified using the chemiluminescent setting on a Wallac (Gaithersburg, Md.) model 1450 Microbeta Plus liquid scintillation counter. The V. harveyi cell density was monitored by the use of a microplate reader (Bio-Rad, Hercules, Calif.). Activity is reported as the percentage of activity obtained from V. harveyi BB152 cell-free supernatant. While the absolute values of luminescence varied considerably between experiments, the pattern of results obtained was reproducible.

[3] = tested on: AHL mediated quorum sensing

SMILES	2 component (two-component signal transduction assay) [1]	AI-2 (AI-2 activity) [2] [% reduction]	AHL (inhibitor of AHL-mediated quorum sensing) [3]
CC1=CC(=C(Br)Br)OC1=O [compound 64]	No effect	80	good
CC1=CC(=O)OC1(Br)C(Br)Br (stereo not shown) [compound 72]		97	
